Test results: US20050245399A1, “Pyrazole derivatives as herbicidal compositions containing them” (ISHIHARA SANGYO KAISHA, LTD., priority 2004, published 2005)

Assays:
Assay type in all cases: in vivo
[1] = test system: crabgrass (Digitaria sanguinalis L.): DIGSA; experiment: Test Example 1 pre-emergence herbicidal activity, DIGSA; conditions: Rate 63 g a.i./ha, visually observed 20th to 23rd day after application
How it was run: (§1)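 Pots of upland soil were sown, and one day later WP or EC formulations at set active-ingredient rates were sprayed pre-emergence in 500 L/ha water. Growth control scored visually 20–23 days after application, 0 (as untreated) to 100 (complete kill).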

[2] = test system: redroot pigweed (Amaranthus retroflexus L.), AMARE; experiment: Test Example 2 post-emergence (foliage treatment) herbicidal activity, AMARE
How it was run: (§2)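 Plants grown in upland soil pots were sprayed on foliage at set leaf stages (ECHCG 1.1-2.1, DIGSA 1.0-2.0, AMARE 0.1-1.5, ORYSA 1.0-2). Formulated compound was applied at predetermined active-ingredient amounts in 500 L/ha water with 0.1% (v/v) spreader. Growth control (0–100%) was visually scored 20–23 days later.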

[3] = test system: wheat (Triticum aestivum L.): TRZAX; experiment: Test Example 1 pre-emergence herbicidal activity, TRZAX; conditions: Rate 63 g a.i./ha, visually observed 20th to 23rd day after application
How it was run: as §1

[4] = test system: redroot pigweed (Amaranthus retroflexus L.): AMARE; experiment: Test Example 1 pre-emergence herbicidal activity, AMARE; conditions: Rate 63 g a.i./ha, visually observed 20th to 23rd day after application
How it was run: as §1

[5] = test system: green foxtail (Setaria viridis L.): SETVI; experiment: Test Example 1 pre-emergence herbicidal activity, SETVI; conditions: Rate 63 g a.i./ha, visually observed 20th to 23rd day after application
How it was run: as §1

[6] = test system: green foxtail (Setaria viridis L.), SETVI; experiment: Test Example 2 post-emergence (foliage treatment) herbicidal activity, SETVI
How it was run: (§3)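 A small sprayer delivered the diluted WP or EC formulation (500 L/ha water, 0.1% v/v spreader) over emerged seedlings in upland soil pots. Damage relative to untreated plants was graded visually from 0 to 100% three weeks or so later (days 20-23).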

[7] = test system: barnyardgrass (Echinochloa crus-galli L.), ECHCG; experiment: Test Example 2 post-emergence (foliage treatment) herbicidal activity, ECHCG
How it was run: as §2

[8] = test system: prickly sida (Sida spinosa L.), SIDSP; experiment: Test Example 2 post-emergence (foliage treatment) herbicidal activity, SIDSP
How it was run: as §3

[9] = test system: japanese ribbon wapato (Sagittaria pygmaea: SA GPY); experiment: Test Example 3 water application herbicidal activity (paddy), SAGPY; conditions: 63 g a.i./ha, water application under submerged condition, tubers planted, visually observed 14th day after application; 0 = untreated control, 100 = complete kill
How it was run: (§4)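 Submerged application in flooded paddy soil (3–4 cm water); weeds treated at 0.5-leaf stage, transplanted rice 4 d after transplanting. Scored visually as % growth control: weeds at 14 d, rice at 21 d.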

[10] = test system: soybean (Glycine max Merr.): GLXMA; experiment: Test Example 1 pre-emergence herbicidal activity, GLXMA; conditions: Rate 63 g a.i./ha, visually observed 20th to 23rd day after application
How it was run: as §1

[11] = test system: corn (Zea mays L.), ZEAMX; experiment: Test Example 2 post-emergence (foliage treatment) herbicidal activity, ZEAMX
How it was run: as §3

[12] = test system: velvetleaf (Abutilon theophrasti): ABUTH; experiment: Test Example 1 pre-emergence herbicidal activity, ABUTH; conditions: Rate 63 g a.i./ha, visually observed 20th to 23rd day after application
How it was run: as §1

[13] = test system: soybean (Glycine max Merr.), GLXMA; experiment: Test Example 2 post-emergence (foliage treatment) herbicidal activity, GLXMA
How it was run: as §3

[14] = test system: prickly sida (Sida spinosa L.): SEDSP; experiment: Test Example 1 pre-emergence herbicidal activity, SIDSP; conditions: Rate 63 g a.i./ha, visually observed 20th to 23rd day after application
How it was run: as §1

[15] = test system: crabgrass (Digitaria sanguinalis L.), DIGSA; experiment: Test Example 2 post-emergence (foliage treatment) herbicidal activity, DIGSA
How it was run: as §2

[16] = test system: barnyardgrass (Echinochloa crus-galli L.): ECHCG; experiment: Test Example 1 pre-emergence herbicidal activity, ECHCG; conditions: Rate 63 g a.i./ha, visually observed 20th to 23rd day after application
How it was run: as §1

[17] = test system: velvetleaf (Abutilon theophrasti), ABUTH; experiment: Test Example 2 post-emergence (foliage treatment) herbicidal activity, ABUTH
How it was run: as §3

[18] = test system: wheat (Triticum aestivum L.), TRZAX; experiment: Test Example 2 post-emergence (foliage treatment) herbicidal activity, TRZAX
How it was run: as §3

[19] = test system: rice (Oryza sativa L.): ORYSA; experiment: Test Example 1 pre-emergence herbicidal activity, ORYSA; conditions: Rate 63 g a.i./ha, visually observed 20th to 23rd day after application
How it was run: as §1

[20] = test system: japanese bulrush (Scirpus juncoides: SCPJO); experiment: Test Example 3 water application herbicidal activity (paddy), SCPJO; conditions: 63 g a.i./ha, water application under submerged condition at 0.5 leaf stage, visually observed 14th day after application; 0 = untreated control, 100 = complete kill
How it was run: as §4

[21] = test system: barnyardgrass (Echinochiloa oryzicola: ECHOR); experiment: Test Example 3 water application herbicidal activity (paddy), ECHOR; conditions: 63 g a.i./ha, water application under submerged condition at 0.5 leaf stage, visually observed 14th day after application; 0 = untreated control, 100 = complete kill
How it was run: as §4

[22] = test system: corn (Zea mays L.): ZEAMX; experiment: Test Example 1 pre-emergence herbicidal activity, ZEAMX; conditions: Rate 63 g a.i./ha, visually observed 20th to 23rd day after application
How it was run: as §1

[23] = test system: rice (Oryza sativa L.: ORYSA); experiment: Test Example 3 water application herbicidal activity (paddy), transplanted rice ORYSA; conditions: 63 g a.i./ha, water application 4th day after transplantation of 2 leaf stage rice, visually observed 21st day after application; 0 = untreated control, 100 = complete kill
How it was run: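 Rice at 2-leaf stage is transplanted into flooded puddled soil and treated by water application 4 days later, at a predetermined active-ingredient dose. Crop injury is rated visually as growth control (0–100%) 21 days after treatment.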

[24] = test system: rice (Oryza sativa L.), ORYSA; experiment: Test Example 2 post-emergence (foliage treatment) herbicidal activity, ORYSA
How it was run: as §2

Structure (SMILES)	Pre-emergence Herbicidal Activity DIGSP (growth controlling degree) [1] [%]	growth controlling degree, AMARE ([2]; 63 g a.i./ha) [%]	Pre-emergence Herbicidal Activity TRZAX (growth controlling degree) [3] [%]	Pre-emergence Herbicidal Activity AMARE (growth controlling degree) [4] [%]	Pre-emergence Herbicidal Activity SETVI (growth controlling degree) [5] [%]	growth controlling degree, SETVI ([6]; 63 g a.i./ha) [%]	growth controlling degree, ECHCO ([7]; 63 g a.i./ha) [%]	growth controlling degree, SIDSP ([8]; 63 g a.i./ha) [%]	growth controlling degrees (%) SAGPY [9] [%]	Pre-emergence Herbicidal Activity GLXMA (growth controlling degree) [10] [%]	growth controlling degree, ZEAMX ([11]; 63 g a.i./ha) [%]	Pre-emergence Herbicidal Activity ABUTH (growth controlling degree) [12] [%]	growth controlling degree, GLXMA ([13]; 63 g a.i./ha) [%]	Pre-emergence Herbicidal Activity SIDSP (growth controlling degree) [14] [%]	Pre-emergence Herbicidal Activity ECHCG (growth controlling degree) [16] [%]	Pre-emergence Herbicidal Activity ORYSA (growth controlling degree) [19] [%]	growth controlling degrees (%) SCPJO [20] [%]	growth controlling degrees (%) ECHOR [21] [%]	Pre-emergence Herbicidal Activity ZEAMX (growth controlling degree) [22] [%]	growth controlling degrees (%) ORYSA [23] [%]	further results
COc1c(Cl)cc(F)c(-c2nn(C)c(OC(F)F)c2Cl)c1NC(=O)c1cccc(Cl)c1 [Compound 1-26]	98	100	10	100	100	100	95	100	100	10	40	100	70	70	70	30	70	100	10	60	growth controlling degree, DIGSP ([15]; 63 g a.i./ha): 60%; growth controlling degree, ABUTH ([17]; 63 g a.i./ha): 100%; growth controlling degree, TRZAX ([18]; 63 g a.i./ha): 30%; growth controlling degree, ORYSA ([24]; 63 g a.i./ha): 80%
COc1c(Cl)cc(F)c(-c2nn(C)c(OC(F)F)c2Cl)c1NC(=O)COc1ccc(C#N)cc1 [Compound 1-36]	30	100	0	100	60	60	50	100	70	0	0	30	50	20	10	10	40	100	0	35	growth controlling degree, DIGSP ([15]; 63 g a.i./ha): 60%; growth controlling degree, ABUTH ([17]; 63 g a.i./ha): 100%; growth controlling degree, TRZAX ([18]; 63 g a.i./ha): 10%; growth controlling degree, ORYSA ([24]; 63 g a.i./ha): 20%
COc1c(Cl)cc(F)c(-c2nn(C)c(OC(F)F)c2Cl)c1NC(=O)c1ccccc1C(F)(F)F [Compound 1-25]	98	100	0	100	95	100	98	100	100	0	90	100	98	100	60	40	95	98	0	60	growth controlling degree, DIGSP ([15]; 63 g a.i./ha): 100%; growth controlling degree, ABUTH ([17]; 63 g a.i./ha): 100%; growth controlling degree, TRZAX ([18]; 63 g a.i./ha): 40%; growth controlling degree, ORYSA ([24]; 63 g a.i./ha): 90%
COc1c(Cl)cc(F)c(-c2nn(C)c(OC(F)F)c2Cl)c1NC(=O)CCc1ccccc1 [Compound 1-21]	100		0	100	100				100	10		100		100	95	40	70	100	20	50	growth controlling degree, AMARE ([2]; 31 g a.i./ha): 100%; growth controlling degree, SETVI ([6]; 31 g a.i./ha): 95%; growth controlling degree, ECHCO ([7]; 31 g a.i./ha): 80%; growth controlling degree, SIDSP ([8]; 31 g a.i./ha): 100%; growth controlling degree, ZEAMX ([11]; 31 g a.i./ha): 90%; growth controlling degree, GLXMA ([13]; 31 g a.i./ha): 70%; growth controlling degree, DIGSP ([15]; 31 g a.i./ha): 60%; growth controlling degree, ABUTH ([17]; 31 g a.i./ha): 100%; growth controlling degree, TRZAX ([18]; 31 g a.i./ha): 40%; growth controlling degree, ORYSA ([24]; 31 g a.i./ha): 90%
COc1cccc(C(=O)Nc2c(OC)c(Cl)cc(F)c2-c2nn(C)c(OC(F)F)c2Cl)c1 [Compound 1-28]	100	100	20	100	100	100	100	90	100	20	90	100	98	100	80	60	80	100	0	50	growth controlling degree, DIGSP ([15]; 63 g a.i./ha): 100%; growth controlling degree, ABUTH ([17]; 63 g a.i./ha): 100%; growth controlling degree, TRZAX ([18]; 63 g a.i./ha): 40%; growth controlling degree, ORYSA ([24]; 63 g a.i./ha): 95%
